Laboratory results: patent US12448369B2 (Edgewise Therapeutics, Inc., priority 2023, dated 2025)
Marks after values point to notes of the source that are not given here.

What was measured:
[1] = test system: Porcine atria myofibrils (atrial myosin ATPase); assay: Myofibril ATPase assay, porcine atria myofibrils; format: biochemical
Method in brief: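 Values are Y75 (concentration cutting ATPase activity to 75% of vehicle) or Y125 (raising it to 125%), taken from 4-parameter logistic fits. Rates come from NADH disappearance at 340 nm in a PK/LDH-coupled assay with porcine atria myofibrils.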

[2] = test system: Rabbit Psoas myofibrils (skeletal myosin ATPase); assay: Myofibril ATPase assay, rabbit psoas (skeletal) myofibrils; format: biochemical
Method in brief: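 Myofibrils homogenized in Triton X-100 buffer were assayed in pH 7.0 PIPES with defined Ca2+/EGTA. Myosin-driven ADP formation was coupled to NADH oxidation, with depletion monitored at 340 nm. Each value is the concentration that lowers activity to 75% of vehicle or, for activators, raises it to 125%.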

[3] = target: T1, Porcine ventricle myofibrils (ventricular myosin ATPase) (Sus scrofa, UniProt P79293); assay: Myofibril ATPase assay, porcine ventricle myofibrils; format: biochemical, porcine (Yucatan minipigs)
T1 construct: Myofibrils from porcine cardiac muscle was isolated from the left ventricle of Yucatan minipigs; tissue Exemplar Genetics; host or cells: left ventricle of Yucatan minipigs, myofibrils prepared in house
T1 sequence (P79293 whole entry): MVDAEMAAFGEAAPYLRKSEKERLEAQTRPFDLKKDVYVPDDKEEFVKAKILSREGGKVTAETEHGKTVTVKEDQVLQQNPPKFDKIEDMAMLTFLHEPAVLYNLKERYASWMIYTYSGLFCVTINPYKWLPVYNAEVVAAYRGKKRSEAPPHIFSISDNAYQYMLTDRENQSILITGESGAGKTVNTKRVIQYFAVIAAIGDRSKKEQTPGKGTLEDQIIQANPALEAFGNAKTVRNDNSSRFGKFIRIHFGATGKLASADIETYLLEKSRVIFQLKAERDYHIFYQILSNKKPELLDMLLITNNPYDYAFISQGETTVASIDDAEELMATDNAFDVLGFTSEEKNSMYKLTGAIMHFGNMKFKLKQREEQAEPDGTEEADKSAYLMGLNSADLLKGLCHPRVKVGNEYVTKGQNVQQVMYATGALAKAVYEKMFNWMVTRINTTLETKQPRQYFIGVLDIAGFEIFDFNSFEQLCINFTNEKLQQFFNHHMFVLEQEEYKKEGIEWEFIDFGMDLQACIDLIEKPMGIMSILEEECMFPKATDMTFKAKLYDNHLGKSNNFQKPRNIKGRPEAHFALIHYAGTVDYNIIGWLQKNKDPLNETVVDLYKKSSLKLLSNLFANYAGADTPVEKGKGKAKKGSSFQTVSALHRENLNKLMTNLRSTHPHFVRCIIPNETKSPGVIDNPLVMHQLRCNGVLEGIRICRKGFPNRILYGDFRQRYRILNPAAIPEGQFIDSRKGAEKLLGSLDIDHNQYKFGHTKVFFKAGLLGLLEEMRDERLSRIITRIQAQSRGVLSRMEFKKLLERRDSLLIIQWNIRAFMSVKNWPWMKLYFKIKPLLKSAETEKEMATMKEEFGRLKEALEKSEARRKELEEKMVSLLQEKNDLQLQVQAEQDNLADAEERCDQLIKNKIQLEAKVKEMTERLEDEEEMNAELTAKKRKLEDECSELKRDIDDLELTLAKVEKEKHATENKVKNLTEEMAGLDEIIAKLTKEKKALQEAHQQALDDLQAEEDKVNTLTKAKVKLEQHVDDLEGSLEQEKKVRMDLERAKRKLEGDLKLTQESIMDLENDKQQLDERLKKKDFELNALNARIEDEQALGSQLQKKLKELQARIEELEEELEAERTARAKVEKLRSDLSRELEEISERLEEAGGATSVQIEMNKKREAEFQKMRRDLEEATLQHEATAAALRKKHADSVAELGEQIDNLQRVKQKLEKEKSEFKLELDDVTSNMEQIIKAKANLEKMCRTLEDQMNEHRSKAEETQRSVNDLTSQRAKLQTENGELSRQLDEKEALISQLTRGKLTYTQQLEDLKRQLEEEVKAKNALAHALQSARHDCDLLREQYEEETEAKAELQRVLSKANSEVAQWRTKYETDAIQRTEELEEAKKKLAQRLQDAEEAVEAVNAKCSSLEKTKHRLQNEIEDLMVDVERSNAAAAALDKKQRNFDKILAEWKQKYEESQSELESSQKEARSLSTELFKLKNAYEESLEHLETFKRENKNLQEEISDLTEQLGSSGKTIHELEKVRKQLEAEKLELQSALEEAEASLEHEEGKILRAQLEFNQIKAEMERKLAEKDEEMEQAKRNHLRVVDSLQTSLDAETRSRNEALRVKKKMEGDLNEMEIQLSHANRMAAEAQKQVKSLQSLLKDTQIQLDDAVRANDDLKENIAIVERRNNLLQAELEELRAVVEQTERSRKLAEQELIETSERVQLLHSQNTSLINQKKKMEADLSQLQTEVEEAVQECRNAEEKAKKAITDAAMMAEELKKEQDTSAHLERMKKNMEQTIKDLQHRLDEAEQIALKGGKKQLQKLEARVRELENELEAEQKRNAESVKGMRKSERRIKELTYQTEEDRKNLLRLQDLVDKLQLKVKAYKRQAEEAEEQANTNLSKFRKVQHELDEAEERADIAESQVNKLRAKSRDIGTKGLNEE
Method in brief: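 ATPase activity of porcine left-ventricular myofibrils is tracked as the slope of NADH loss at 340 nm through a PK/LDH couple. Values are the concentrations that bring activity to 75% (inhibitors) or 125% (activators) of vehicle.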

[4] = Y75 value: concentration required to reduce myosin ATP-ase activity by 25%, Porcine Atria Prep pCa 25 GEOM_MEAN
[5] = Y75 value: concentration required to reduce myosin ATP-ase activity by 25%, Porcine Ventricle Prep pCa 25 GEOM_MEAN
[6] = porcine atria myofibrils, Y75 value (75% activity relative to no compound)
[7] = rabbit psoas myofibrils, Y75 value
[8] = porcine ventricle myofibrils, Y75 value
[9] = Y75 value (no ‡ mark), porcine atria myofibrils
[10] = Y75 value (no ‡ mark), rabbit psoas myofibrils
[11] = Y75 value (no ‡ mark), porcine ventricle myofibrils

Row | SMILES | Atrial EC25 [1, 6] [µM] | Skeletal EC25 [2, 7] [µM] | Ventricular EC25 [3, 8] [µM] | Atrial EC25 [1, 9] [µM] | Skeletal EC25 [2, 10] [µM] | Ventricular EC25 [3, 11] [µM] | further results
1 | C[C@H](NC(=O)Cc1cc2c(F)c(F)ccc2[nH]c1=O)c1nc(C#N)co1 (single isomer, unassigned) [compound 4007] |  |  |  |  |  |  | Atrial EC25 [1, 4]: 100.00 µM; Skeletal EC25 (μM), Y125 value (‡) ([2]; Y125 value: concentration required to increase myosin ATP-ase activity by 25%, Rabbit Psoas Prep pCa 25 GEOM_MEAN): 100.00‡ μM; Ventricular EC25 [3, 5]: 100.00 µM
2 | COc1ncc2[nH]c(=O)c(CC(=O)N[C@@H](C)c3ccc(F)cc3F)cc2n1 [compound 497] | 73.3 | 100 | 100 |  |  |  | 
3 | O=C(Cc1cc2cc(F)ccc2[nH]c1=O)N1CC[C@H]2C[C@@H]1c1ccccc12 (single isomer, unassigned) [compound 4502] |  |  |  | 1.28 | 0.50 | 0.63 | 
4 | Cc1nccc2[nH]c(=O)c([C@H](C)C(=O)N[C@@H](C)c3ccc(F)cc3F)c(C(F)(F)F)c12 (single isomer, unassigned) [compound 413] | 20.63 | 10.76 | 100.00 |  |  |  | 
5 | C[C@H](NC(=O)Cc1c(C2CC2)c2cnccc2[nH]c1=O)c1ncc(C#N)cc1F [compound 143] | 0.96 | 0.61 | 6.56 |  |  |  | 
6 | Cc1ccc2[nH]c(=O)c(CC(=O)N[C@@H](C)c3ncc(C#N)cc3F)cc2n1 [compound 463] | 4.39 | 9.72 | 26.99 |  |  |  | 
7 | Cc1nccc2[nH]c(=O)c(C(F)(F)C(=O)N[C@@H](C)c3ccc(C#N)cc3F)c(C)c12 (single isomer, unassigned) [compound 3508] | 0.22 | 0.07 | 0.29 |  |  |  | 
8 | C[C@H](NC(=O)[C@H](C)c1c(C(F)(F)F)c2cc(F)ccc2[nH]c1=O)c1ccc(F)cc1F (single isomer, unassigned) [compound 100] |  |  |  | 0.06 | 0.04 | 0.69 | 
9 | Cc1cc(C#N)cnc1[C@H](C)NC(=O)Cc1c(O)c2c(C)c(F)ccc2[nH]c1=O [compound 1121] |  |  |  | 100.00 | 100.00 | 100.00 | 
10 | Cc1c(CC(=O)N[C@@H](CO)c2ccc(C#N)cc2F)c(=O)[nH]c2ccc(F)c(C3CC3)c12 [compound 72] |  |  |  | 0.08 | 0.02 | 0.34 | 
11 | C[C@@H](NC(=O)Cc1cc2c(F)cccc2[nH]c1=O)c1ccc(C#N)cn1 [compound 47] |  |  |  | 4.48 | 0.43 | 4.80 | 
12 | Cc1c(C(F)(F)C(=O)N[C@H](C)c2cc(C#N)ccn2)c(=O)[nH]c2ccc(F)c(F)c12 (single isomer, unassigned) [compound 2585] |  |  |  | 1.59 | 3.04 | 7.05 | 
13 | Cc1c(C(F)(F)C(=O)N[C@@H](C)c2nc(C#N)cs2)c(=O)[nH]c2ccc(F)cc12 (single isomer, unassigned) [Compound 4010] |  |  |  |  |  |  | Atrial EC25 [1, 4]: 0.74 µM; Skeletal EC25 ([2]; Y75 value: concentration required to reduce myosin ATP-ase activity by 25%, Rabbit Psoas Prep pCa 25 GEOM_MEAN): 2.38 µM; Ventricular EC25 [3, 5]: 19.76 µM
14 | Cc1c(CC(=O)N[C@@H](C)c2ccc(C#N)cn2)c(=O)[nH]c2ccc(F)c(F)c12 [compound 46] |  |  |  | 0.24 | 0.02 | 0.12 | 
15 | Cc1c(CC(=O)N[C@H](C)c2ncc(C#N)cc2F)c(=O)[nH]c2ccc(F)c(Cl)c12 (single isomer, unassigned) [compound 2051] |  |  |  | 0.43 | 0.16 | 0.60 | 
16 | Cc1c(CC(=O)N[C@@H](C)c2ccc(F)cc2F)c(=O)[nH]c2ccnc(NCC(C)C)c12 [compound 277] | 100.00 | 82.10 | 84.29 |  |  |  | 
17 | Cc1c(CC(=O)N[C@@H](CO)c2ccc(C#N)cc2F)c(=O)[nH]c2ccnc(OC3CC3)c12 [compound 204] | 0.47 | 0.07 | 7.78 |  |  |  | 
18 | C[C@H](NC(=O)Cc1cc2c(C#N)nccc2[nH]c1=O)c1ccc(F)cn1 [compound 475] | 100.00 | 2.98 | 39.76 |  |  |  | 

Row | SMILES | Atrial EC25 [1, 6] [µM] | Skeletal EC25 [2, 7] [µM] | Ventricular EC25 [3, 8] [µM] | Atrial EC25 [1, 9] [µM] | Skeletal EC25 [2, 10] [µM] | Ventricular EC25 [3, 11] [µM] | further results
19 | C[C@@H](NC(=O)C1(c2cc3c(F)c(F)ccc3[nH]c2=O)CC1)c1ccc(C#N)cn1 (single isomer, unassigned) [compound 4809] |  |  |  | 3.07 | 1.34 | 31.20 | 
20 | Cc1nccc2[nH]c(=O)c(CC(=O)N[C@@H](CO)c3ccncc3)c(C)c12 [compound 293] | 100.00 | 73.40 | 100.00 |  |  |  | 
21 | Cc1c(CC(=O)N[C@H](C)c2ccc(C#N)nn2)c(=O)[nH]c2cc(F)c(F)cc12 [compound 1042] |  |  |  | 0.89 | 1.88 | 24 | 
22 | Cc1c(C(F)(F)C(=O)N[C@H](C)c2cnc(C#N)cn2)c(=O)[nH]c2ccc(F)cc12 (single isomer, unassigned) [compound 4827] |  |  |  | 0.23 | 0.08 | 0.71 | 
23 | Cc1c(CC(=O)N[C@H](C)c2ccc(C#N)cn2)c(=O)[nH]c2ccc(OC(F)(F)F)nc12 [compound 449] | 100.00 | 100.00 | 100.00 |  |  |  | 
24 | Cc1c(CC(=O)N[C@@H](C)c2ccc(F)cc2F)c(=O)[nH]c2ccnc(OCC(C)(C)F)c12 [compound 372] | 100.00 | 1.61 | 100.00 |  |  |  | 
25 | C[C@H](NC(=O)Cc1cc2c(F)c(F)ccc2[nH]c1=O)c1ncc(C#N)cn1 (single isomer, unassigned) [compound 2072] |  |  |  | 0.68 | 0.35 | 11.13 | 
26 | C[C@H](NC(=O)Cc1c(C(F)(F)F)c2c(C3CC3)nccc2[nH]c1=O)c1ccc(C#N)cn1 (single isomer, unassigned) [compound 3006] |  | 100.00 | 100.00 |  |  |  | Atrial EC25 (Y125 value, marked ‡) ([1]; porcine atria myofibrils, Y125 value (125% activity), not a Y75 value): 77.22‡ μM
27 | Cc1c(CC(=O)N[C@H](C)c2ncc(C#N)cn2)c(=O)[nH]c2cccc(F)c12 (single isomer, unassigned) [compound 2041] |  |  |  | 1.18 | 100.00 | 1.50 | 
28 | Cc1c([C@@H](C)C(=O)N[C@@H](C)c2ccc(F)cc2F)c(=O)[nH]c2ccnc(Cl)c12 (single isomer, unassigned) [compound 365] | 0.18 | 0.03 | 0.92 |  |  |  | 
29 | Cc1cc([C@H](C)NC(=O)Cc2cc3c(C#N)nccc3[nH]c2=O)ncc1F [compound 471] | 100.00 | 100.00 | 67.58 |  |  |  | 
30 | Cc1c(CC(=O)N[C@H](C)c2ccc(C#N)cn2)c(=O)[nH]c2ccc(F)c(F)c12 [compound 45] |  |  |  | 0.07 | 0.12 | 0.42 | 
31 | C[C@H](NC(=O)[C@@H](C)c1cc2c(F)c(F)ccc2[nH]c1=O)c1ccc(F)cc1F (single isomer, unassigned) [compound 110] |  |  |  | 0.52 | 100.00 | 42.60 | 
32 | Cc1c(CC(=O)N[C@H](C)c2ccc(C#N)cn2)c(=O)[nH]c2ccc(F)c(C3CC3)c12 [compound 23] |  |  |  | 100.00 | 0.50 | 1.19 | 
33 | Cc1c([C@H](C)C(=O)N[C@@H](C)c2ccc(F)cc2F)c(=O)[nH]c2ccnc(Cl)c12 (single isomer, unassigned) [compound 366] | 0.14 | 0.04 | 1.48 |  |  |  | 
34 | Cc1c(C(F)(F)C(=O)N[C@H](C)c2cc(C#N)ccn2)c(=O)[nH]c2ccc(F)cc12 (single isomer, unassigned) [compound 2575] |  |  |  | 16.13 | 14.65 | 20.79 | 
35 | Cc1nccc2[nH]c(=O)c(CC(=O)N[C@H](CO)c3ccc(C#N)cc3F)c(C)c12 (single isomer, unassigned) [compound 238] | 8.52 | 2.87 | 11.53 |  |  |  | 
36 | Cc1ccc2[nH]c(=O)c(CC(=O)N[C@H](C)c3ncc(C#N)cc3F)c(C)c2n1 [compound 468] | 0.80 | 4.03 | 1.48 |  |  |  | 
